The test system of data set [1] is HeLa-Luc Zellen. Kind of data set: Trypan blue vitality determination after siRNA transfection in presence of TLR7/8 agonists (Beispiel 9). The class given is cell-based. The following applies: Trypanblau after 48 h, Blindprobe 95,9. The protocol: Zunächst werden die ersten 5 Wells der ersten 3 Reihen einer 48 Well Platte mit jeweils 30 µl PBS gefüllt. Die Stocklösung der anti-Luciferase-siRNA und der non-specific-control-siRNA wird mit PBS auf eine Konzentration von 1 pmol/10 µl eingestellt. Anschließend werden jeweils 10 µl der Arbeitslösung der anti-Luciferase-siRNA in die ersten 3 Wells der der ersten drei Reihen der 48 Well Platte pipettiert. In die jeweils vierten Wells werden jeweils 10 µl der Arbeitslösung der non-specific-control-siRNA pipettiert. Das Metafectene Pro Reagenz wird mit PBS 1:300 verdünnt. Von dieser Verdünnung werden jeweils 20 µl in jedes Well mit siRNA gegeben. Anschließend werden die Lipoplexe für 20 Minuten bei Raumtemperatur inkubiert. Danach werden pro Well 250 µl Zellsuspension zugegeben. Analog wird eine zweite Platte bestückt.
In die ersten 2 Spalten der beiden 48 Well Platte werden 2 verschiedene Agonisten hinzugegeben. Dabei werden 3 verschiedene Arbeitskonzentrationen der Agonisten verwendet. Die Agonisten liegen lyophilisiert vor. Sie werden mit endotoxin-freiem Wasser zu Stocklösungen mit der Konzentration 100µg/ml gelöst. Die Stocklösungen werden jeweils 1:10 mit Wasser zu Arbeitslösungen verdünnt.
Von der ssRNA40/LyoVec-Arbeitslösung werden in B1 0,78 µl (=0,5 µg/ml Endkonzentration ssRNA40), in B2 15,5 µl (=5µg/ml) und in B3 31µl (=10µg/ml) pipettiert. Nach der Zugabe der Agonisten werden die beiden 48 Well Platten für 48 Stunden im CO2-Inkubator inkubiert.
Nach einer Inkubationszeit von 48 Stunden werden die Zellen einer Platte trypsiniert und mittels einer Neubauer-Zählkammer eine Vitalitätbestimmung mit Trypanblau für jedes Well durchgeführt.
Es wurden zwischen 40 und 70 Zellen ausgewertet.

Data set [2] deals with HeLa-Luc Zellen. Kind of data set: Luciferase assay after anti-Luciferase siRNA transfection in presence of TLR7/8 agonists (Beispiel 9). The class given is cell-based. To be noted: 48 h.
Protocol: Anschließend werden 120 µl Luciferase-Lysispuffer hinzugegeben.
Alle Messungen wurden dreifach durchgeführt.
Von der Imiquimod-Arbeitslösung werden in A1 0,78 µl (=0,25 µg/ml Endkonzentration), in A2 15,5 µl (=5µg/ml) und in A3 31 µl (=10µg/ml) pipettiert. Von der ssRNA40/LyoVec-Arbeitslösung werden in B1 0,78 µl (=0,5 µg/ml Endkonzentration ssRNA40), in B2 15,5 µl (=5µg/ml) und in B3 31µl (=10µg/ml) pipettiert. Nach der Zugabe der Agonisten werden die beiden 48 Well Platten für 48 Stunden im CO2-Inkubator inkubiert.
The test system of data set [3] is HeLa-Luc Zellen. Kind of data set: Luciferase assay after anti-Luciferase siRNA transfection in presence of kinase inhibitors (Beispiel 8). To be noted: 2 h before anti-Luciferase-siRNA/Metafectene Pro lipoplex.
The subject of data set [4] is HeLa Zellen. To be noted: Vorinkubationszeit 2h, inhibitor replaced and transfection repeated on day 3, Entwicklungszeit 10 min, 0µM well 0,63. The protocol: Die Effizienz der Transfektion wird mit dem β-Galaktosidase Assay Kit nach Vorgaben des Herstellers durchgeführt. Die Platten werden so lange entwickelt bis im Mikroplate-Reader eine Gelbfärbung mit einer Absorption von 1-2 gemessen wird und anschließend sofort gestoppt. Die Inkubationszeit wird anschließend notiert. Die Werte werden mit dem Mikroplate-Reader ausgelesen, und der Mittelwert gebildet.
1. Tag: Es werden HeLa Zellen in eine 48 Well Platte ausgesät.
1 mg Inhibitor wird in 100 µl DMSO gelöst (Stocklösung). Anschließend wird mit PBS 1:20 verdünnt (Arbeitslösung). Anschließend werden die Wells der 48 Well Platte mit folgenden Mengen Inhibitor versorgt:
Anschließend werden die Lipoplexe hergestellt. […] Jetzt werden beide Lösungen gemischt und 15 min inkubiert. Am Ende werden jeweils 50 µl der Lipoplexlösung in jedes Well gegeben.
Die Schritte Lipoplexherstellung und Transfektion werden ohne Inkubationszeit wiederholt.
Analog Beispiel 1 (mit halben Mengen)

From patent publication EP2363494A9, “Improvement of transfection results of non-viral gene delivery systems by influencing the congenital immune system” (Biontex Laboratories Gmbh, priority 2007, dated 2009) come the findings set out here.

Structures are written as SMILES. Read-outs that look alike come from different tables or passages of the source.

Regarding `CC(C)Cn1cnc2c(N)nc3ccccc3c21` [Imiquimod, 1-(2-methylpropyl)-1H-imidazol[4,5-c]quinolin-4-amine], the Vitalität is reported as 98,6% in data set [1] (Imiquimod 0,5µg/ml + anti-Luciferase-siRNA/Metafectene Pro), 88,7% in data set [1] (Imiquimod 5µg/ml + anti-Luciferase-siRNA/Metafectene Pro) and 88,6% in data set [1] (Imiquimod 10µg/ml + anti-Luciferase-siRNA/Metafectene Pro). For the same compound, the “Luciferase Assay, Mittelwert von 3x3” value in data set [2] (Imiquimod 0,25 µg/ml Endkonzentration (0,5µg/ml in the 30th table) + anti-Luciferase-siRNA/Metafectene Pro, same plate row: siRNA alone 1604, non-specific control 3016, blank 2936) is given as 676 RLU/µl Zellextrakt/sec; in data set [2] (Imiquimod 5µg/ml + anti-Luciferase-siRNA/Metafectene Pro, same plate row: siRNA alone 1302, non-specific control 2753, blank 2673), 349 RLU/µl Zellextrakt/sec; in data set [2] (Imiquimod 10µg/ml + anti-Luciferase-siRNA/Metafectene Pro, same plate row: siRNA alone 1481, non-specific control 2822, blank 2476), 116 RLU/µl Zellextrakt/sec.

For `C[S+]([O-])c1ccc(-c2nc(-c3ccncc3)c(-c3ccc(F)cc3)[nH]2)cc1` (stereo not shown) [SB203580], the “Luciferase Assay, Mittelwert von 3x3 Messungen” value in data set [3] (SB203580 5µM, one transfection, 0µM 1027, non-specific-control-siRNA 2029, untransfected 2504) came to 693 RLU/µl Zellextrakt/sec; in data set [3] (SB203580 5µM, transfection repeated on day 3, 0µM 976, non-specific-control-siRNA 2135, untransfected 2531) it was 696 RLU/µl Zellextrakt/sec; in data set [3] (SB203580 10µM, one transfection, 0µM 1027, non-specific-control-siRNA 2029, untransfected 2504), 747 RLU/µl Zellextrakt/sec; in data set [3] (SB203580 10µM, transfection repeated on day 3, 0µM 976, non-specific-control-siRNA 2135, untransfected 2531) it was 656 RLU/µl Zellextrakt/sec; in data set [3] (SB203580 20µM, one transfection, 0µM 1027, non-specific-control-siRNA 2029, untransfected 2504) it was 630 RLU/µl Zellextrakt/sec; in data set [3] (SB203580 20µM, transfection repeated on day 3, 0µM 976, non-specific-control-siRNA 2135, untransfected 2531), 617 RLU/µl Zellextrakt/sec. For the same compound, the “Luciferase Assay, Mittelwert von 3x3 Messungen” value worked out at 671 RLU/µl Zellextrakt/sec in data set [3] (SB203580 30µM, one transfection, 0µM 1027, non-specific-control-siRNA 2029, untransfected 2504); 587 RLU/µl Zellextrakt/sec in data set [3] (SB203580 30µM, transfection repeated on day 3, 0µM 976, non-specific-control-siRNA 2135, untransfected 2531); 669 RLU/µl Zellextrakt/sec in data set [3] (SB203580 40µM, one transfection, 0µM 1027, non-specific-control-siRNA 2029, untransfected 2504); 610 RLU/µl Zellextrakt/sec in data set [3] (SB203580 40µM, transfection repeated on day 3, 0µM 976, non-specific-control-siRNA 2135, untransfected 2531).

Turning to `N#CC(=C(/N)Sc1ccccc1N)/C(C#N)=C(/N)Sc1ccccc1N` [U0126, 1,4-Diamino-2,3-dicyano-1,4-bis(o-amionophenylmercapto)butadiene], the “Absorption β-Galaktosidase Assay, Mittelwert von 3 Messungen” value in data set [4] (5µM inhibitor) is reported as 0,72; in data set [4] (10µM inhibitor), 0,92; in data set [4] (25µM inhibitor), 0,79; in data set [4] (50µM inhibitor) it was 0,90; in data set [4] (75µM inhibitor) it was 0,97. The “Luciferase Assay, Mittelwert von 3x3 Messungen” value stood at 375 RLU/µl Zellextrakt/sec in data set [3] (U0126 5µM, one transfection, 0µM 1157, non-specific-control-siRNA 1829, untransfected 1674); 641 RLU/µl Zellextrakt/sec in data set [3] (U0126 5µM, transfection repeated on day 3, 0µM 1001, non-specific-control-siRNA 2290, untransfected 2249); 567 RLU/µl Zellextrakt/sec in data set [3] (U0126 10µM, one transfection, 0µM 1157, non-specific-control-siRNA 1829, untransfected 1674); 162 RLU/µl Zellextrakt/sec in data set [3] (U0126 10µM, transfection repeated on day 3, 0µM 1001, non-specific-control-siRNA 2290, untransfected 2249); 268 RLU/µl Zellextrakt/sec in data set [3] (U0126 25µM, one transfection, 0µM 1157, non-specific-control-siRNA 1829, untransfected 1674); 179 RLU/µl Zellextrakt/sec in data set [3] (U0126 25µM, transfection repeated on day 3, 0µM 1001, non-specific-control-siRNA 2290, untransfected 2249). The “Luciferase Assay, Mittelwert von 3x3 Messungen” value stood at 193 RLU/µl Zellextrakt/sec in data set [3] (U0126 50µM, one transfection, 0µM 1157, non-specific-control-siRNA 1829, untransfected 1674); 171 RLU/µl Zellextrakt/sec in data set [3] (U0126 50µM, transfection repeated on day 3, 0µM 1001, non-specific-control-siRNA 2290, untransfected 2249); 260 RLU/µl Zellextrakt/sec in data set [3] (U0126 75µM, one transfection, 0µM 1157, non-specific-control-siRNA 1829, untransfected 1674); 103 RLU/µl Zellextrakt/sec in data set [3] (U0126 75µM, transfection repeated on day 3, 0µM 1001, non-specific-control-siRNA 2290, untransfected 2249).
